Values of other authors in article PMC6150173, “Tryptophan-Containing Cyclic Decapeptides with Activity against Plant Pathogenic Bacteria” (Molecules : A Journal of Synthetic Chemistry and Natural …, 2017).

Tested on: Pseudomonas syringae pv. syringae, Xanthomonas axonopodis pv. vesicatoria, and Erwinia amylovora
Details: cited from earlier work
Source text: Combinatorial chemistry constitutes a powerful tool to obtain peptides with improved biological activity against plant pathogens. In particular, we have employed this methodology to design and synthesize a library of cyclic decapeptides with general structure c(X5-Phe-X3-Gln) where X is Lys or Leu. Analysis of internal structural features together with a design of experiments (DOE) allowed establishing the sequence pattern for an optimal biological activity, i.e., c(X^1X^2X^3X^4LysPheLysLysLeuGln) where X^2 ≠ X^3 and X^4 = Lys. […] Cyclic peptides are preferred candidates due to their high conformational rigidity and proteolytic stability. In a previous work, a library of 66 Phe-containing cyclic decapeptides was synthesized from which sequences with high activity against E. amylovora, P. syringae pv. syringae, and X. axonopodis pv. vesicatoria were identified, highlighting c(LysLysLeuLysLysPheLysLysLeuGln) ... || The results obtained support the notion that subtle changes in a peptide sequence may lead to a significant modification of its biological activity. Thus, for example, the Phe→Trp substitution in the lead peptides c(LysLysLeuLysLysPheLysLysLeuGln) (BPC194) and c(LysLeuLysLysLysPheLysLysLeuGln) (BPC198) caused a reduction of the activity. […]

Substance | antibacterial activity in words, Phe peptides
cyclo(LKKKKFLLKQ) [BPC108] | poorly active
cyclo(LKKKLFKKLQ) [BPC086] | poorly active
